Data: patent US9919998B2, “Antibacterial agents: Nα-aroyl-N-aryl-phenylalaninamides” (priority 2014, dated 2018)
Converted amounts (≈) assume the structure as drawn.

Experiments:
Assay type in all cases: cell-based
[1] = tested on: Mycobacterium tuberculosis H37Rv; experiment: Microplate Alamar Blue assay (MABA) MIC, M. tuberculosis; conditions: read-out: MIC Mycobacterium tuberculosis H37Rv
Source text: (§1) Minimal inhibitory concentrations (MICs) in Mycobacterium tuberculosis H37Rv and Mycobacterium avium ATCC 25291 were quantified using microplate Alamar Blue assays as described (MABA; [Collins, L. & Franzblau, S. (1997) Microplate Alamar Blue assay versus BACTEC 460 system for high-throughput screening of compounds against Mycobacterium tuberculosis and Mycobacterium avium. Antimicrob. Agents Chemother. 41, 1004-1009]).

[2] = tested on: Mycobacterium avium ATCC 25291; experiment: Microplate Alamar Blue assay (MABA) MIC, M. avium; conditions: ATCC25291, M. avium ATCC 25291
Source text: as §1

[3] = tested on: Mycobacterium smegmatis ATCC 19420; experiment: Broth microdilution MIC, M. smegmatis; conditions: Mycolicibacterium smegmatis, ATCC19420, M. smegmatis ATCC 19420; read-out: MIC Mycobacterium smegmatis ATCC 19420
Source text: MICs in Mycobacterium smegmatis ATCC 19420 and Mycobacterium smegmatis ATCC 19420 derivatives were quantified using broth microdilution assays as described [Clinical and Laboratory Standards Institute (CLSI/NCCLS) (2009) Methods for Dilution Antimicrobial Susceptibility Tests for Bacteria That Grow Aerobically; Approved Standard, Eighth Edition. CLIS Document M07-A8 (CLIS, Wayne Pa.)].

[4] = tested on: Vero E6 ATCC CRL1586 cells; experiment: Mammalian-cell cytotoxicity, minimal cytotoxic concentration (CellTiter96)
Method: Minimal cytotoxic concentrations (MCCs) against mammalian cells in culture were determined using Vero E6 ATCC CRL1586 cells and the CellTiter96 assay kit (Promega, Inc.). […]

Structure (SMILES)	MIC [1]	MIC [2]	MIC [3]	MCC mammalian cells Vero E6 ATCC CRL1586 [4]
Cc1ccccc1C(=O)NC(Cc1ccccc1)C(=O)Nc1cccc2[nH]ncc12 (centres unmarked) [IX-191, N-(1-((1H-indazol-4-yl)amino)-1-oxo-3-phenylpropan-2-yl)-2-methyl-benzamide]	12.5 µg/mL (≈ 31.4 µM)	12.5 µg/mL (≈ 31.4 µM)	0.39 µg/mL (≈ 0.979 µM)	>100 µg/mL
O=C(NC(Cc1ccccc1)C(=O)Nc1cccc2[nH]ncc12)c1cccs1 (centres unmarked) [IX-201, N-(1-((1H-indazol-4-yl)amino)-1-oxo-3-phenylpropan-2-yl)thiophene-2-carboxamide]	25 µg/mL (≈ 64 µM)	12.5 µg/mL (≈ 32 µM)	0.09 µg/mL (≈ 0.23 µM)	47 µg/mL
COc1ccc(F)cc1NC(=O)C(Cc1ccc(O)cc1)NC(=O)c1ccccc1 (centres unmarked) [IX-203, N-(1-((5-fluoro-2-methoxyphenyl)amino)-3-(4-hydroxyphenyl)-1-oxopropan-2-yl)benzamide]	0.78 µg/mL (≈ 1.91 µM)	0.78 µg/mL (≈ 1.91 µM)	0.195 µg/mL (≈ 0.477 µM)	>100 µg/mL
COc1ccc(F)cc1NC(=O)C(Cc1ccc(O)cc1)NC(=O)c1ccccc1C (centres unmarked) [IX-205, N-(1-((5-fluoro-2-methoxyphenyl)amino)-3-(4-hydroxyphenyl)-1-oxopropan-2-yl)-2-methylbenzamide]	0.78 µg/mL (≈ 1.85 µM)	0.78 µg/mL (≈ 1.85 µM)	0.39 µg/mL (≈ 0.923 µM)	70 µg/mL
COc1ccc(F)cc1NC(=O)C(Cc1ccc(O)cc1)NC(=O)c1cccs1 (centres unmarked) [IX-206, N-(1-((5-fluoro-2-methoxyphenyl)amino)-3-(4-hydroxyphenyl)-1-oxopropan-2-yl)thiophene-2-carboxamide]	0.78 µg/mL (≈ 1.88 µM)	0.39 µg/mL (≈ 0.941 µM)	0.195 µg/mL (≈ 0.47 µM)	70 µg/mL
O=C(NC(Cc1ccc(O)cc1)C(=O)Nc1ccccc1N1CCNCC1)c1cccs1 (centres unmarked) [IX-219, N-(3-(4-hydroxyphenyl)-1-oxo-1-((2-(piperazin-1-yl)phenyl)amino)-propan-2-yl)thiophene-2-carboxamide]	1.56 µg/mL (≈ 3.46 µM)	3.12 µg/mL (≈ 6.94 µM)	0.78 µg/mL (≈ 1.73 µM)	69 µg/mL
O=C(NC(Cc1ccc(O)cc1)C(=O)Nc1cc(F)ccc1N1CCNCC1)c1cccs1 (centres unmarked) [IX-222, N-(1-((5-fluoro-2-(piperazin-1-yl)phenyl)amino)-3-(4-hydroxyphen-yl)-1-oxopropan-2-yl)thiophene-2-carboxamide]	1.56 µg/mL (≈ 3.33 µM)	1.56 µg/mL (≈ 3.33 µM)	0.78 µg/mL (≈ 1.66 µM)	38 µg/mL
O=C(NC(Cc1ccccc1)C(=O)Nc1cccc2[nH]nnc12)c1ccccc1 (centres unmarked) [IX-223, N-(1-((1H-benzo[d][1,2,3]triazol-4-yl)amino)-1-oxo-3-phenylpropan-2-yl)benzamide]	25 µg/mL (≈ 64.9 µM)	50 µg/mL (≈ 130 µM)	0.78 µg/mL (≈ 2.02 µM)	64 µg/mL
Cn1nnc2cccc(NC(=O)C(Cc3ccccc3)NC(=O)c3ccccc3)c21 (centres unmarked) [IX-224, N-(1-((1-methyl-1H-benzo[d][1,2,3]triazol-7-yl)amino)-1-oxo-3-phenylpropan-2-yl)benzamide]	6.25 µg/mL (≈ 15.6 µM)	25 µg/mL (≈ 62.6 µM)	0.39 µg/mL (≈ 0.976 µM)	>100 µg/mL
Cn1ncc2c(NC(=O)C(Cc3ccccc3)NC(=O)c3ccccc3)cccc21 (centres unmarked) [IX-225, N-(1-((1-methyl-1H-indazol-4-yl)amino)-1-oxo-3-phenylpropan-2-yl)benzamide]	1.56 µg/mL (≈ 3.92 µM)	1.56 µg/mL (≈ 3.92 µM)	0.195 µg/mL (≈ 0.489 µM)	45 µg/mL
O=C(NC(Cc1ccccc1)C(=O)Nc1cccc2nc[nH]c12)c1ccccc1 (centres unmarked) [IX-230, N-(1-((1H-benzo[d]imidazol-7-yl)amino)-1-oxo-3-phenylpropan-2-yl)benzamide]	50 µg/mL (≈ 130 µM)	25 µg/mL (≈ 65 µM)	0.39 µg/mL (≈ 1.01 µM)	84 µg/mL
Cn1ccc2cccc(NC(=O)C(Cc3ccccc3)NC(=O)c3ccccc3)c21 (centres unmarked) [IX-231, N-(1-((1-methyl-1H-indol-7-yl)amino)-1-oxo-3-phenylpropan-2-yl)benzamide]	25 µg/mL (≈ 62.9 µM)	> 50 µg/mL	1.56 µg/mL (≈ 3.92 µM)	>100 µg/mL
Cn1cnc2cccc(NC(=O)C(Cc3ccccc3)NC(=O)c3ccccc3)c21 (centres unmarked) [IX-232, N-(1-((1-methyl-1H-benzo[d]imidazol-7-yl)amino)-1-oxo-3-phenyl-propan-2-yl)benzamide]	25 µg/mL (≈ 62.7 µM)	25 µg/mL (≈ 62.7 µM)	1.56 µg/mL (≈ 3.92 µM)	96 µg/mL
O=C(NC(Cc1ccccc1)C(=O)Nc1cccc2ncsc12)c1ccccc1 (centres unmarked) [IX-234, N-(1-(benzo[d]thiazol-7-ylamino)-1-oxo-3-phenylpropan-2-yl)benz-amide]	3.12 µg/mL (≈ 7.78 µM)	3.12 µg/mL (≈ 7.78 µM)	0.39 µg/mL (≈ 0.971 µM)	80 µg/mL
O=C(NC(Cc1ccccc1)C(=O)Nc1cccc2[nH]ncc12)c1cccc2[nH]ccc12 (centres unmarked) [IX-241, N-(1-((1H-indazol-4-yl)amino)-1-oxo-3-phenylpropan-2-yl)-1H-indole-4-carboxamide]	25 µg/mL (≈ 59 µM)	12.5 µg/mL (≈ 29.5 µM)	0.78 µg/mL (≈ 1.84 µM)	36 µg/mL
O=C(NC(Cc1ccccc1)C(=O)Nc1ccccc1N1CCNCC1)c1cccc2[nH]ccc12 (centres unmarked) [IX-242, N-(1-oxo-3-phenyl-1-((2-(piperazin-1-yl)phenyl)amino)propan-2-yl)-1H-indole-4-carboxamide]	3.12 µg/mL (≈ 6.68 µM)	0.78 µg/mL (≈ 1.67 µM)	0.04 µg/mL (≈ 0.0855 µM)	12 µg/mL
O=C(NC(Cc1ccccc1)C(=O)Nc1cc(F)ccc1N1CCNCC1)c1cccc2[nH]ccc12 (centres unmarked) [IX-243]	6.25 µg/mL (≈ 12.9 µM)	0.78 µg/mL (≈ 1.61 µM)	0.19 µg/mL (≈ 0.391 µM)	11 µg/mL
COc1ccc(F)cc1NC(=O)C(Cc1ccccc1)NC(=O)c1cccc2[nH]ccc12 (centres unmarked) [IX-244, N-(1-((5-fluoro-2-methoxyphenyl)amino)-1-oxo-3-phenylpropan-2-yl)-1H-indole-4-carboxamide]	6.25 µg/mL (≈ 14.5 µM)	3.12 µg/mL (≈ 7.24 µM)	0.78 µg/mL (≈ 1.81 µM)	58 µg/mL
O=C(NC(Cc1ccc(O)cc1)C(=O)Nc1cc(F)ccc1N1CCNCC1)c1ccccc1 (centres unmarked) [IX-246, N-(1-((5-fluoro-2-(piperazin-1-yl)phenyl)amino)-3-(4-hydroxy-phenyl)-1-oxopropan-2-yl)benzamide]	3.12 µg/mL (≈ 6.76 µM)	0.78 µg/mL (≈ 1.69 µM)	0.195 µg/mL (≈ 0.422 µM)	34 µg/mL
CC1CN(c2ccccc2NC(=O)C(Cc2ccccc2)NC(=O)c2ccccc2)CC(C)O1 (centres unmarked) [IX-265, N-(1-((2-(2,6-dimethylmorpholino)phenyl)amino)-1-oxo-3-phenyl-propan-2-yl)benzamide]	6.25 µg/mL (≈ 13.7 µM)	6.25 µg/mL (≈ 13.7 µM)	1.56 µg/mL (≈ 3.41 µM)	>100 µg/mL
CC1CN(c2ccccc2NC(=O)C(Cc2ccc(O)cc2)NC(=O)c2ccccc2)CC(C)O1 (centres unmarked) [IX-266, N-(1-((2-(2,6-dimethylmorpholino)phenyl)amino)-3-(4-hydroxy-phenyl)-1-oxopropan-2-yl)benzamide]	6.25 µg/mL (≈ 13.2 µM)	6.25 µg/mL (≈ 13.2 µM)	1.56 µg/mL (≈ 3.29 µM)	71 µg/mL
COc1ccc(Cl)cc1NC(=O)C(Cc1ccccc1)NC(=O)c1ccccc1F (centres unmarked) [IX-278, N-(1-((5-chloro-2-methoxyphenyl)amino)-1-oxo-3-phenylpropan-2-yl)-2-fluorobenzamide]	0.78 µg/mL (≈ 1.83 µM)	2.3 µg/mL (≈ 5.39 µM)	0.39 µg/mL (≈ 0.914 µM)	29 µg/mL
COc1ccc(Cl)cc1NC(=O)C(Cc1ccccc1)NC(=O)c1ccccc1C (centres unmarked) [IX-279, N-(1-((5-chloro-2-methoxyphenyl)amino)-1-oxo-3-phenylpropan-2-yl)-2-methylbenzamide]	0.78 µg/mL (≈ 1.84 µM)	0.78 µg/mL (≈ 1.84 µM)	1.56 µg/mL (≈ 3.69 µM)	87 µg/mL
